Data from patent publication US5190975A, “Indan derivatives used for treating thromboses or asthma” (Tanabe Seiyaku Co., Ltd., priority 1987, dated 1993).

How the values were obtained:
[1] = test system: arachidonic acid-induced pulmonary embolism; test: Inhibiting effect on arachidonic acid-induced pulmonary embolism (in vivo); parameters: species or system ddy-male mice; settings: Mus musculus; dose required to shorten the recovery time by at least 15% as compared with the control group; oral, 3 hours before arachidonic acid 125 mg/kg, mice
Protocol: Inhibiting effect on arachidonic acid-induced pulmonary embolism (in vivo):
A test compound in an aqueous carboxymethylcellulose solution (20 ml/kg) was orally administered to ddy-male mice fasted overnight. Three hours later, arachidonic acid (125 mg/kg) was injected to the tail vein of mice to induce pulmonary embolism, and the recovery time (minute) of locomotive activity of the mice was compared with that of a control group of mice to which a 0.25% aqueous CMC solution was administered instead of the test compound solution. The inhibiting effect of each test compound on arachidonic acid-induced pulmonary embolism was estimated in terms of the dose required to shorten the recovery time by at least 15% as compared with the control group.

TxA2 = settings: Thrombosis Research, 35, 379-395, 1984; cited from earlier work

O=C(O)COc1ccc(CCNS(=O)(=O)c2ccccc2)cc1 [Control, 4-(2-Benzensulfonylaminoethyl)phenoxyacetic acid]
ED15 [1]: 30 mg/kg
TxA2-antagonistic activity (TxA2): has TxA2 -antagonistic activity

O=C(O)CCNC(=O)Cc1ccc2c(c1)CC(NS(=O)(=O)c1ccc(Cl)cc1)C2 (stereo not shown) [Example 1]
ED15 [1]: 0.03 mg/kg

O=C(O)CCCNC(=O)Cc1ccc2c(c1)CC(NS(=O)(=O)c1ccc(Cl)cc1)C2 (stereo not shown) [Example 2]
ED15 [1]: 0.03 mg/kg
